Assay results reported in patent publication US12157717B2, “Compounds for the treatment of bovine or swine respiratory disease” (Intervet Inc., priority 2018, dated 2024).
≈ marks a conversion by molar mass, not a printed value.

How the values were obtained:
Assay type in all cases: cell-based
[1] = tested on: Mannheimia haemolytica MH 13093 (XB0472-6014.1); experiment: MIC, broth-microdilution (CLSI), strain MH 13093; conditions: Mannheimia haemolytica XB0472-6014.1, BRD field isolate
Experimental: (§1) The Minimum inhibitory concentrations (MIC) of compounds according to the invention for a number of veterinary bacterial pathogens were determined by the broth-microdilution method according to CLSI document VETO 1-A4.
(§2) Microdilution trays containing a doubling dilution series of the test compound were used for the tests. The MIC results were interpreted according to the CLSI documents VET01-S3. The lowest concentration of compound at which no visible growth (i.e. no turbidity) detected by the unaided eye was recorded as the MIC.

[2] = tested on: Mannheimia haemolytica MH 10720 (154); experiment: MIC, broth-microdilution (CLSI), strain MH 10720; conditions: Mannheimia haemolytica 154, BRD field isolate
Experimental: as §1, §2

[3] = tested on: Pasteurella multocida PM 12080 (IV102277-0093); experiment: MIC, broth-microdilution (CLSI), strain PM 12080; conditions: Pasteurella multocida IV102277-0093, BRD field isolate
Experimental: as §1, §2

[4] = tested on: Mannheimia haemolytica MH 12587 (1071), macrolide-resistance: erm+, E+; experiment: MIC, broth-microdilution (CLSI), strain MH 12587; conditions: Mannheimia haemolytica 1071, BRD field isolate
Experimental: as §1, §2

[5] = tested on: Mannheimia haemolytica MH 13065 (XB0446-6003.9); experiment: MIC, broth-microdilution (CLSI), strain MH 13065; conditions: Mannheimia haemolytica XB0446-6003.9, BRD field isolate
Experimental: as §1, §2

[6] = tested on: Pasteurella multocida PM 6391 (ATCC 43137); experiment: MIC, broth-microdilution (CLSI), strain PM 6391; conditions: Pasteurella multocida ATCC 43137, reference strain
Experimental: as §1, §2

[7] = tested on: Mannheimia haemolytica MH 6374 (ATCC 33396); experiment: MIC, broth-microdilution (CLSI), strain MH 6374; conditions: Mannheimia haemolytica ATCC 33396, reference strain
Experimental: as §1, §2

[8] = tested on: Mannheimia haemolytica MH 6357 (M7/2); experiment: MIC, broth-microdilution (CLSI), strain MH 6357; conditions: Mannheimia haemolytica M7/2, reference strain (cattle infection strain)
Experimental: as §1, §2

[9] = tested on: Pasteurella multocida PM 6267 (P 2225 (L386)); experiment: MIC, broth-microdilution (CLSI), strain PM 6267; conditions: Pasteurella multocida P 2225 (L386), reference strain (mouse infection strain)
Experimental: as §1, §2

[10] = tested on: Pasteurella multocida PM 10775 (080130003051); experiment: MIC, broth-microdilution (CLSI), strain PM 10775; conditions: Pasteurella multocida 080130003051, BRD field isolate
Experimental: as §1, §2

CNC(=O)C(C(=O)NO)N(C)C(=O)c1ccc(C#Cc2ccc(CNC3CCCC3)cc2)cc1 (stereo not shown) [Compound 26]
MIC MH 13093 [1]: 25 µM (≈ 11.6 µg/mL)
MIC MH 10720 [2]: 3.1 µM (≈ 1.43 µg/mL)
MIC PM 12080 [3]: 1.6 µM (≈ 0.74 µg/mL)
MIC MH 12587 [4]: 25 µM (≈ 11.6 µg/mL)
MIC MH 13065 [5]: 12.5 µM (≈ 5.78 µg/mL)
MIC PM 6391 [6]: 1.6 µM (≈ 0.74 µg/mL)
MIC MH 6374 [7]: 12.5 µM (≈ 5.78 µg/mL)
MIC MH 6357 [8]: 6.3 µM (≈ 2.91 µg/mL)
MIC PM 6267 [9]: 0.8 µM (≈ 0.37 µg/mL)
MIC PM 10775 [10]: 0.4 µM (≈ 0.185 µg/mL)

CNC(=O)C(NC(=O)c1ccc(C#Cc2ccc(CNC3CC3)cc2)cc1)C(=O)NO (stereo not shown) [Compound 1]
MIC MH 13093 [1]: 1.6 µM (≈ 0.673 µg/mL)
MIC MH 10720 [2]: ≤0.1 µM
MIC PM 12080 [3]: ≤0.1 µM
MIC MH 12587 [4]: 0.8 µM (≈ 0.336 µg/mL)
MIC MH 13065 [5]: 0.4 µM (≈ 0.168 µg/mL)
MIC PM 6391 [6]: ≤0.1 µM
MIC MH 6374 [7]: 0.4 µM (≈ 0.168 µg/mL)
MIC MH 6357 [8]: 0.4 µM (≈ 0.168 µg/mL)
MIC PM 6267 [9]: ≤0.1 µM
MIC PM 10775 [10]: ≤0.1 µM

CNC(=O)C(C(=O)NO)N(C)C(=O)c1ccc(C#Cc2ccc(CNCc3nccs3)cc2)cc1 (stereo not shown) [Compound 29]
MIC MH 13093 [1]: 12.5 µM (≈ 6.14 µg/mL)
MIC MH 10720 [2]: 1.6 µM (≈ 0.787 µg/mL)
MIC PM 12080 [3]: 1.6 µM (≈ 0.787 µg/mL)
MIC MH 12587 [4]: 12.5 µM (≈ 6.14 µg/mL)
MIC MH 13065 [5]: 6.3 µM (≈ 3.1 µg/mL)
MIC PM 6391 [6]: 3.1 µM (≈ 1.52 µg/mL)
MIC MH 6374 [7]: 3.1 µM (≈ 1.52 µg/mL)
MIC MH 6357 [8]: 6.3 µM (≈ 3.1 µg/mL)
MIC PM 6267 [9]: 0.8 µM (≈ 0.393 µg/mL)
MIC PM 10775 [10]: 0.2 µM (≈ 0.0983 µg/mL)

C#CCNCc1ccc(C#Cc2ccc(C(=O)N(C)C(C(=O)NC)C(=O)NO)cc2)cc1 (stereo not shown) [Compound 30]
MIC MH 13093 [1]: 1.6 µM (≈ 0.692 µg/mL)
MIC MH 10720 [2]: 0.4 µM (≈ 0.173 µg/mL)
MIC PM 12080 [3]: 0.8 µM (≈ 0.346 µg/mL)
MIC MH 12587 [4]: 3.1 µM (≈ 1.34 µg/mL)
MIC MH 13065 [5]: 1.6 µM (≈ 0.692 µg/mL)
MIC PM 6391 [6]: 1.6 µM (≈ 0.692 µg/mL)
MIC MH 6374 [7]: 0.8 µM (≈ 0.346 µg/mL)
MIC MH 6357 [8]: 0.8 µM (≈ 0.346 µg/mL)
MIC PM 6267 [9]: 0.4 µM (≈ 0.173 µg/mL)
MIC PM 10775 [10]: ≤0.1 µM

CNC(=O)C(NC(=O)c1ccc(C#Cc2ccc(CNCc3ccccc3)cc2)cc1)C(=O)NO (stereo not shown) [Compound 5]
MIC MH 13093 [1]: 1.6 µM (≈ 0.753 µg/mL)
MIC MH 10720 [2]: ≤0.1 µM
MIC PM 12080 [3]: ≤0.1 µM
MIC MH 12587 [4]: 1.6 µM (≈ 0.753 µg/mL)
MIC MH 13065 [5]: 0.8 µM (≈ 0.376 µg/mL)
MIC PM 6391 [6]: 0.2 µM (≈ 0.0941 µg/mL)
MIC MH 6374 [7]: 0.8 µM (≈ 0.376 µg/mL)
MIC MH 6357 [8]: 0.4 µM (≈ 0.188 µg/mL)
MIC PM 6267 [9]: ≤0.1 µM
MIC PM 10775 [10]: ≤0.1 µM

CNC(=O)C(C(=O)NO)N(C)C(=O)c1ccc(C#Cc2ccc(CN3CCCC3)cc2)cc1 (stereo not shown) [Compound 25]
MIC MH 13093 [1]: 12.5 µM (≈ 5.61 µg/mL)
MIC MH 10720 [2]: 3.1 µM (≈ 1.39 µg/mL)
MIC PM 12080 [3]: 1.6 µM (≈ 0.718 µg/mL)
MIC MH 12587 [4]: 12.5 µM (≈ 5.61 µg/mL)
MIC MH 13065 [5]: 6.3 µM (≈ 2.83 µg/mL)
MIC PM 6391 [6]: 3.1 µM (≈ 1.39 µg/mL)
MIC MH 6374 [7]: 6.3 µM (≈ 2.83 µg/mL)
MIC MH 6357 [8]: 6.3 µM (≈ 2.83 µg/mL)
MIC PM 6267 [9]: 1.6 µM (≈ 0.718 µg/mL)
MIC PM 10775 [10]: 0.4 µM (≈ 0.179 µg/mL)

CNC(=O)C(NC(=O)c1ccc(C#Cc2ccc(CN3CCOCC3)cc2)cc1)C(=O)NO (stereo not shown) [Compound 4]
MIC MH 13093 [1]: 1.6 µM (≈ 0.721 µg/mL)
MIC MH 10720 [2]: 0.4 µM (≈ 0.18 µg/mL)
MIC PM 12080 [3]: ≤0.1 µM
MIC MH 12587 [4]: 6.3 µM (≈ 2.84 µg/mL)
MIC MH 13065 [5]: 1.6 µM (≈ 0.721 µg/mL)
MIC PM 6391 [6]: ≤0.1 µM
MIC MH 6374 [7]: 3.1 µM (≈ 1.4 µg/mL)
MIC MH 6357 [8]: 1.6 µM (≈ 0.721 µg/mL)
MIC PM 6267 [9]: ≤0.1 µM
MIC PM 10775 [10]: ≤0.1 µM

CNC(=O)C(NC(=O)c1ccc(C#Cc2ccc(CNCc3ccco3)cc2)cc1)C(=O)NO (stereo not shown) [Compound 14]
MIC MH 13093 [1]: 0.8 µM (≈ 0.368 µg/mL)
MIC MH 10720 [2]: 0.2 µM (≈ 0.0921 µg/mL)
MIC PM 12080 [3]: ≤0.1 µM
MIC MH 12587 [4]: 0.4 µM (≈ 0.184 µg/mL)
MIC MH 13065 [5]: 0.4 µM (≈ 0.184 µg/mL)
MIC PM 6391 [6]: ≤0.1 µM
MIC MH 6374 [7]: 0.4 µM (≈ 0.184 µg/mL)
MIC MH 6357 [8]: 0.4 µM (≈ 0.184 µg/mL)
MIC PM 6267 [9]: ≤0.1 µM
MIC PM 10775 [10]: ≤0.1 µM

CCCNCc1ccc(C#Cc2ccc(C(=O)N(C)C(C(=O)NC)C(=O)NO)cc2)cc1 (stereo not shown) [Compound 27]
MIC MH 13093 [1]: 12.5 µM (≈ 5.46 µg/mL)
MIC MH 10720 [2]: 1.6 µM (≈ 0.698 µg/mL)
MIC PM 12080 [3]: 1.6 µM (≈ 0.698 µg/mL)
MIC MH 12587 [4]: 12.5 µM (≈ 5.46 µg/mL)
MIC MH 13065 [5]: 6.3 µM (≈ 2.75 µg/mL)
MIC PM 6391 [6]: 3.1 µM (≈ 1.35 µg/mL)
MIC MH 6374 [7]: 6.3 µM (≈ 2.75 µg/mL)
MIC MH 6357 [8]: 6.3 µM (≈ 2.75 µg/mL)
MIC PM 6267 [9]: 0.2 µM (≈ 0.0873 µg/mL)
MIC PM 10775 [10]: 0.4 µM (≈ 0.175 µg/mL)

CNC(=O)C(NC(=O)c1ccc(C#Cc2ccc(CNCC(F)(F)F)cc2)cc1)C(=O)NO (stereo not shown) [Compound 19]
MIC MH 13093 [1]: 0.2 µM (≈ 0.0925 µg/mL)
MIC MH 10720 [2]: ≤0.1 µM
MIC PM 12080 [3]: ≤0.1 µM
MIC MH 12587 [4]: 0.8 µM (≈ 0.37 µg/mL)
MIC MH 13065 [5]: 0.2 µM (≈ 0.0925 µg/mL)
MIC PM 6391 [6]: ≤0.1 µM
MIC MH 6374 [7]: 0.4 µM (≈ 0.185 µg/mL)
MIC MH 6357 [8]: 0.2 µM (≈ 0.0925 µg/mL)
MIC PM 6267 [9]: ≤0.1 µM
MIC PM 10775 [10]: ≤0.1 µM
